Patent US8524745B2 (Allergan, Inc., priority 2011, dated 2013)

What follows are compounds tested against T1, CCR2 (Homo sapiens, UniProt P41597) (assay: CCR2 calcium activity assay on FLIPR Tetra in HEK-Gqi5 cells stably expressing CCR2).
T1 construct: expressed in transfected cells
Format: cell-based
Procedure: HEK-Gqi5 cells stably expressing CCR2 were cultured in (DMEM high glucose, 10% FBS, 1% PSA, 400 μg/ml geneticin and 50 μg/ml hygromycin. Appropriate positive control chemokines (MCP-1, MIP1A or RANTES) was used as the positive control agonist for screening compound-induced calcium activity assayed on the FLIPR^Tetra. The drug plates were prepared in 384-well microplates using the EP3 and the MuItiPROBE robotic liquid handling systems. Compounds were synthesized and tested for CCR2 activity.

T1 sequence (P41597 whole entry, species assumed): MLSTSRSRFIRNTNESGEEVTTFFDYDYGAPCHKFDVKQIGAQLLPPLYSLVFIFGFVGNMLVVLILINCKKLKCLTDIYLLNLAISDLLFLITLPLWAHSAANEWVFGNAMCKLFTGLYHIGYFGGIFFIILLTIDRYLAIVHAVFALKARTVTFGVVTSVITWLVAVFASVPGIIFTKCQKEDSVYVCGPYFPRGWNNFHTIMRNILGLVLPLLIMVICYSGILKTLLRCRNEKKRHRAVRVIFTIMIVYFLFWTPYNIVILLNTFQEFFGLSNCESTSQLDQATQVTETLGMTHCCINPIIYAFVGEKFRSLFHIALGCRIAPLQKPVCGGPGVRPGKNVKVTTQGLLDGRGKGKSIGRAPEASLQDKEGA

CCR2 % ANTAG [%] | IC50 [nM] | Compound
104 | 513 | Cn1sc(=O)c2cc(S(=O)(=O)Nc3ccccc3NS(=O)(=O)c3ccc(Cl)s3)ccc21 [N-(2-{[(5-chloro-2-thienyl)sulfonyl]amino}phenyl)-1-methyl-3-oxo-1,3-dihydro-2,1-benzisothiazole-5-sulfonamide]
95 | 491 | Cn1sc(=O)c2cc(S(=O)(=O)Nc3cc(Cl)ccc3NS(=O)(=O)c3ccc(O)cc3)ccc21 [N-(5-chloro-2-{[(4-hydroxyphenyl)sulfonyl]amino}phenyl)-1-methyl-3-oxo-1,3-dihydro-2,1-benzisothiazole-5-sulfonamide]
79 | 1660 | Cn1sc(=O)c2cc(S(=O)(=O)Nc3cc(Cl)c(Cl)cc3Cl)ccc21 [1-methyl-3-oxo-N-(2,4,5-trichlorophenyl)-1,3-dihydro-2,1-benzisothiazole-5-sulfonamide]
84 | – | Cn1sc(=O)c2cc(S(=O)(=O)Nc3cccc(C(F)(F)F)c3)ccc21 [1-methyl-3-oxo-N-[3-(trifluoromethyl)phenyl]-1,3-dihydro-2,1-benzisothiazole-5-sulfonamide]
75 | 311 | Cc1cc(NS(=O)(=O)c2ccc3c(c2)c(=O)sn3C)c(NS(=O)(=O)c2cccs2)cc1Cl [N-{4-chloro-5-methyl-2-[(2-thienylsulfonyl)amino]phenyl}-1-methyl-3-oxo-1,3-dihydro-2,1-benzisothiazole-5-sulfonamide]
67 | 1460 | Cn1sc(=O)c2cc(S(=O)(=O)Nc3cccc4c3Oc3ccccc3O4)ccc21 [N-dibenzo[b,e][1,4]dioxin-1-yl-1-methyl-3-oxo-1,3-dihydro-2,1-benzisothiazole-5-sulfonamide]
83 | 1080 | Cn1sc(=O)c2cc(S(=O)(=O)Nc3cc(Cl)ccc3NCc3cccs3)ccc21 [N-{5-chloro-2-[(2-thienylmethyl)amino]phenyl}-1-methyl-3-oxo-1,3-dihydro-2,1-benzisothiazole-5-sulfonamide]
59 | 2720 | Cn1sc(=O)c2cc(S(=O)(=O)Nc3cc(C#N)ccc3NS(=O)(=O)c3cccs3)ccc21 [N-{5-cyano-2-[(2-thienylsulfonyl)amino]phenyl}-1-methyl-3-oxo-1,3-dihydro-2,1-benzisothiazole-5-sulfonamide]
100 | 2420 | Cn1sc(=O)c2cc(S(=O)(=O)Nc3ccccc3NS(=O)(=O)c3cccc(F)c3)ccc21 [N-(2-{[(3-fluorophenyl)sulfonyl]amino}phenyl)-1-methyl-3-oxo-1,3-dihydro-2,1-benzisothiazole-5-sulfonamide]
92 | 522 | Cn1sc(=O)c2cc(S(=O)(=O)Nc3ccccc3NS(=O)(=O)c3ccc(Cl)c(Cl)c3)ccc21 [N-(2-{[(3,4-dichlorophenyl)sulfonyl]amino}phenyl)-1-methyl-3-oxo-1,3-dihydro-2,1-benzisothiazole-5-sulfonamide]
88 | 240 | Cn1sc(=O)c2cc(S(=O)(=O)Nc3cc(Cl)ccc3NS(=O)(=O)c3ccc(Cl)c(C(F)(F)F)c3)ccc21 [N-[5-chloro-2-({[4-chloro-3-(trifluoromethyl)phenyl]sulfonyl}amino)phenyl]-1-methyl-3-oxo-1,3-dihydro-2,1-benzisothiazole-5-sulfonamide]
84 | 1350 | Cn1sc(=O)c2cc(S(=O)(=O)Nc3ccccc3NS(=O)(=O)c3ccccc3Cl)ccc21 [N-(2-{[(2-chlorophenyl)sulfonyl]amino}phenyl)-1-methyl-3-oxo-1,3-dihydro-2,1-benzisothiazole-5-sulfonamide]
99 | 1080 | Cn1sc(=O)c2cc(S(=O)(=O)Nc3ccccc3NS(=O)(=O)c3ccc(Cl)cc3)ccc21 [N-(2-{[(4-chlorophenyl)sulfonyl]amino}phenyl)-1-methyl-3-oxo-1,3-dihydro-2,1-benzisothiazole-5-sulfonamide]
102 | 377 | Cc1ccc(NS(=O)(=O)c2cccs2)c(NS(=O)(=O)c2ccc3c(c2)c(=O)sn3C)c1 [1-methyl-N-{5-methyl-2-[(2-thienylsulfonyl)amino]phenyl}-3-oxo-1,3-dihydro-2,1-benzisothiazole-5-sulfonamide]
105 | 471 | Cn1sc(=O)c2cc(S(=O)(=O)Nc3c(F)cccc3NS(=O)(=O)c3cccs3)ccc21 [N-{2-fluoro-6-[(2-thienylsulfonyl)amino]phenyl}-1-methyl-3-oxo-1,3-dihydro-2,1-benzisothiazole-5-sulfonamide]
96 | 438 | Cn1sc(=O)c2cc(S(=O)(=O)Nc3ccccc3NS(=O)(=O)c3cc(F)cc(F)c3)ccc21 [N-(2-{[(3,5-difluorophenyl)sulfonyl]amino}phenyl)-1-methyl-3-oxo-1,3-dihydro-2,1-benzisothiazole-5-sulfonamide]
48 | 1010 | Cn1sc(=O)c2cc(S(=O)(=O)Nc3cc(Cl)cnc3NS(=O)(=O)c3cccs3)ccc21 [N-{5-chloro-2-[(2-thienylsulfonyl)amino]pyridin-3-yl}-1-methyl-3-oxo-1,3-dihydro-2,1-benzisothiazole-5-sulfonamide]
86 | – | Cc1cccc(NS(=O)(=O)c2ccc3c(c2)c(=O)sn3C)c1NS(=O)(=O)c1cccs1 [1-methyl-N-{3-methyl-2-[(2-thienylsulfonyl)amino]phenyl}-3-oxo-1,3-dihydro-2,1-benzisothiazole-5-sulfonamide]
93 | 1240 | Cn1sc(=O)c2cc(S(=O)(=O)N[C@@H]3CCCC[C@@H]3NS(=O)(=O)c3ccc(Cl)c(C(F)(F)F)c3)ccc21 (relative stereo) [rel-N-[(1R,2S)-2-({[4-chloro-3-(trifluoromethyl)phenyl]sulfonyl}amino)cyclohexyl]-1-methyl-3-oxo-1,3-dihydro-2,1-benzisothiazole-5-sulfonamide]
78 | 210 | COc1ccc(S(=O)(=O)Nc2ccc(Cl)cc2NS(=O)(=O)c2ccc3c(c2)c(=O)sn3C)cc1 [N-(5-chloro-2-{[(4-methoxyphenyl)sulfonyl]amino}phenyl)-1-methyl-3-oxo-1,3-dihydro-2,1-benzisothiazole-5-sulfonamide]
54 | – | Cn1sc(=O)c2cc(S(=O)(=O)N3CCCC(NS(=O)(=O)c4cccs4)C3)ccc21 (centres unmarked) [N-{1-[(1-methyl-3-oxo-1,3-dihydro-2,1-benzisothiazol-5-yl)sulfonyl]piperidin-3-yl}thiophene-2-sulfonamide]
85 | 1190 | N,N-dimethyl-N-(4-{[(1-methyl-3-oxo-1,3-dihydro-2,1-benzisothiazol-5-yl)carbonyl]amino}benzyl)tetrahydro-2H-pyran-4-aminium
